Our source for the EC50 values is patent US10227360B2, “Compounds for use as GPR120 agonists” (PIRAMAL ENTERPRISES LIMITED, priority 2014, dated 2019).

For this assay, the target named is GPR120L receptor (Homo sapiens (Human), UniProt Q5NUL3). Put plainly: Beta (β) arrestin 2 Interaction Assay (BRET assay), β-galactosidase enzyme fragment complementation. The format is cell-based. The following applies: CHO-K1 cells stably expressing the GPR120L receptor; β-arrestin recruitment; 2 hours incubation. As for the experimental part:
Beta (β) arrestin 2 Interaction Assay (BRET assay) was performed using CHO-K1 cells stably expressing the GPR120L receptor using β-galactosidase (Beta gal) enzyme fragment complementation assay. The measurement of GPR120 activation upon agonist activation was directly provided by β-arrestin recruitment. One day before the β-arrestin 2 assay, CHO-K1 cells were seeded and incubated overnight at 37° C. in a 5% CO2 humidified atmosphere. Cells were treated with the test compounds in the various concentrations ranging from 30 μM to 1 nM and incubated for 2 hours for GPCR (GPR120) activation. Extent of Arrestin recruitment was measured by adding detection reagents for Beta gal complementation assay and was further incubated for 1 hour. The chemi-luminescent signal was detected on Polar Star (BMG Labtech). The dose-response curve was analyzed using Sigma Plot/Graph Pad. The EC50 (concentration of the test compounds where 50% of compounds' maximal activity is observed) values were calculated from the dose-response curve.

Sequence of GPR120L receptor (Q5NUL3 other isoform, or with tags, fused parts or gaps): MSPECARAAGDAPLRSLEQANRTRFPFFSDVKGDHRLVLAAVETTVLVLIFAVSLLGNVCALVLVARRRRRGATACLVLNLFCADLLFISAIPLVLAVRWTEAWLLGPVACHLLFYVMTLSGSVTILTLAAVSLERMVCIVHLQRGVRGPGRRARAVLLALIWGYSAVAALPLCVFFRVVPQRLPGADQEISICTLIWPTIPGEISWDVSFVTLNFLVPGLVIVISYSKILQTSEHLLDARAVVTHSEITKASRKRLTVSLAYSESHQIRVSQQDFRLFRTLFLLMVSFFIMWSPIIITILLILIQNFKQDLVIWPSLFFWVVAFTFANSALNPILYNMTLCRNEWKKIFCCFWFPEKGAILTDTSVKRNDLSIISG

As a reminder, the EC50 is the concentration giving half of the maximal effect. Read a high EC50 as a need for much substance. Consider `COC1CCCc2cc(-c3ccc(F)cc3COc3ccc(CCCC(=O)O)cc3)ccc21` (stereo not shown) [Example 38, 4-(4-((5-Fluoro-2-(5-methoxy-5,6,7,8-tetrahydronaphthalen-2-yl)benzyl)oxy)phenyl)butanoic acid], for which the EC50 lay within 5 to 50 µM.
The compound `COC1(C)CCCc2cc(-c3ccc(F)cc3COc3ccc(CCCC(=O)O)cc3)ccc21` (stereo not shown) [Example 39, 4-(4-((5-Fluoro-2-(5-methoxy-5-methyl-5,6,7,8-tetrahydronaphthalen-2-yl)benzyl)oxy)phenyl)butanoic acid] came in with an EC50 of 5 to 50 µM.
In turn, `CC1(c2ccc(-c3ccc(F)cc3COc3ccc(CCCC(=O)O)cc3)s2)CC1` [Example 40, 4-(4-((5-Fluoro-2-(5-(1-methylcyclopropyl)thiophen-2-yl)benzyl)oxy)phenyl)butanoic acid] showed an EC50 of 0.01 to 0.5 µM.
In the case of `O=C(O)CCCc1ccc(OCc2cc(F)ccc2-c2nc3c(s2)CCCCC3)cc1` [Example 41, 4-(4-((5-Fluoro-2-(5,6,7,8-tetrahydro-4H-cyclohepta[d]thiazol-2-yl)benzyl)oxy)phenyl)butanoic acid], the EC50 lay within 0.01 to 0.5 µM.
`O=C(O)CCCc1ccc(OCc2cc(F)ccc2-c2ccc(C3(F)CC3)s2)cc1` [Example 42, 4-(4-((5-Fluoro-2-(5-(1-fluorocyclopropyl)thiophen-2-yl)benzyl)oxy)phenyl)butanoic acid]: the EC50 lay in the range of 5 to 50 µM.
On to `O=C(O)CCCc1ccc(OCc2cc(F)ccc2-c2ccc(C3CC3(F)F)cc2)cc1` (stereo not shown) [Example 43, 4-(4-((4′-(2,2-Difluorocyclopropyl)-4-fluoro-[1,1′-biphenyl]-2-yl)methoxy)phenyl)butanoic acid], for which the EC50 lay in the range of 0.01 to 0.5 µM.
The value for `O=C(O)CCCc1ccc(OCc2cc(F)ccc2-c2nnc(C3CC3)s2)cc1` [Example 44, 4-(4-((2-(5-Cyclopropyl-1,3,4-thiadiazol-2-yl)-5-fluorobenzyl)oxy)phenyl)butanoic acid] was 0.01 to 0.5 µM; that for `O=C(O)CCCc1ccc(OCc2cc(F)ccc2-c2ncc(C3CC3)s2)cc1` [Example 45, 4-(4-((2-(5-Cyclopropylthiazol-2-yl)-5-fluorobenzyl)oxy)phenyl)butanoic acid] was 0.01 to 0.5 µM; that for `O=C(O)CCCc1ccc(OCc2cc(F)ccc2-c2nc3c(s2)CCCC3)cc1` [Example 46, 4-(4-((5-Fluoro-2-(4,5,6,7-tetrahydrobenzo[d]thiazol-2-yl)benzyl)oxy)phenyl)butanoic acid] was 0.01 to 0.5 µM.
As for `O=C(O)CCCc1ccc(OCc2cc(F)ccc2-c2nc3c(s2)CCC3)cc1` [Example 47, 4-(4-((2-(5,6-dihydro-4H-cyclopenta[d]thiazol-2-yl)-5-fluorobenzyl)oxy)phenyl)butanoic acid], the EC50 is 0.01 to 0.5 µM.
For `O=C(O)CCCc1ccc(OCc2cc(F)ccc2-c2nc3c(s2)COCC3)cc1` [Example 48, 4-(4-((2-(6,7-Dihydro-4H-pyrano[4,3-d]thiazol-2-yl)-5-fluorobenzyl)oxy)phenyl)butanoic acid], the EC50 fell in the range of 0.5 to 5 µM.
In turn, `O=C(O)CCCc1ccc(OCc2cc(F)ccc2-c2nc3c(s2)COCC3)cc1` [Example 49, 4-(4-((2-(6,7-Dihydro-4H-pyrano[4,3-d]thiazol-2-yl)-5-fluorobenzyl)oxy)phenyl)butanoic acid] showed an EC50 of 0.01 to 0.5 µM.
As to `O=C(O)CCCc1ccc(OCc2cc(F)ccc2-c2nc(C3CC3)cs2)cc1` [Example 50, 4-(4-((2-(4-Cyclopropylthiazol-2-yl)-5-fluorobenzyl)oxy)phenyl)butanoic acid], the EC50 fell in the range of 0.5 to 5 µM.
